For this experiment, the system named is MV-4-11 cells. The experiment is described as follows: Gene expression microarray analysis (Affymetrix PrimeView) and GSEA. The settings on record: MV-4-11 cells, 48 hours. Format: cell-based, human. More on the design: RFU PODN (11730768_x_at) / Fold change /veh PODN (11730768_x_at) / RFU LINC00158 (11744669_a_at) / Fold change /veh LINC00158 (11744669_a_at) / RFU DUSP10 (11751237_a_at) / Fold change /veh DUSP10 (11751237_a_at) / RFU ID3 (11757404_x_at) / Fold change /veh ID3 (11757404_x_at) / RFU PLEKHG5 (11737974_s_at) / Fold change /veh PLEKHG5 (11737974_s_at) / RFU LRRC4B (11730491_at) / Fold change /veh LRRC4B (11730491_at) / RFU GIMAP4 (11747438_a_at) / Fold change /veh GIMAP4 (11747438_a_at) / RFU KRT8 (11758183_x_at) / Fold change /veh KRT8 (11758183_x_at) / RFU CNN1 (11734310_a_at) / Fold change /veh CNN1 (11734310_a_at) / RFU VPS37D (11726825_at) / Fold change /veh VPS37D (11726825_at) / RFU C10orf10 (11716522_x_at) / Fold change /veh C10orf10 (11716522_x_at) / RFU KIR2DL2 /// KIR2DL4 /// KIR2DL5A /// KIR2DL5B /// KIR2DS1 /// KIR2DS2 /// KIR2DS3 /// KIR2DS4 /// KIR3DL3 /// KIR3DL3 /// KIR3DS1 (11738374_at) / Fold change /veh KIR2DL2 /// KIR2DL4 /// KIR2DL5A /// KIR2DL5B /// KIR2DS1 /// KIR2DS2 /// KIR2DS3 /// KIR2DS4 /// KIR3DL3 /// KIR3DL3 /// KIR3DS1 (11738374_at) / RFU C1QL1 (11718748_at) / Fold change /veh C1QL1 (11718748_at) / RFU TMPRSS4 (11747572_a_at) / Fold change /veh TMPRSS4 (11747572_a_at) / RFU HAMP (11756126_x_at) / Fold change /veh HAMP (11756126_x_at) / RFU RNFT2 (11725882_a_at) / Fold change /veh RNFT2 (11725882_a_at) / RFU NR4A2 (11747474_a_at) / Fold change /veh NR4A2 (11747474_a_at) / RFU ABCC12 (11746883_a_at) / Fold change /veh ABCC12 (11746883_a_at) / RFU TMEM136 (11760407_x_at) / Fold change /veh TMEM136 (11760407_x_at) / RFU CLDN22 /// WWC2 (11732394_at) / Fold change /veh CLDN22 /// WWC2 (11732394_at) / RFU HLA-DPB1 (11760878_x_at) / Fold change /veh HLA-DPB1 (11760878_x_at) / RFU SPINT1 (11716480_a_at) / Fold change /veh SPINT1 (11716480_a_at) / RFU GAP43 (11754022_s_at) / Fold change /veh GAP43 (11754022_s_at) / RFU A4GNT (11735810_at) / Fold change /veh A4GNT (11735810_at) / RFU PRB3 (11715151_x_at) / Fold change /veh PRB3 (11715151_x_at) / RFU TUBB4B (11761932_at) / Fold change /veh TUBB4B (11761932_at) / RFU CAPN14 (11732068_a_at) / Fold change /veh CAPN14 (11732068_a_at) / RFU TMCC2 (11721928_a_at) / Fold change /veh TMCC2 (11721928_a_at) / RFU IRGQ (11745062_a_at) / Fold change /veh IRGQ (11745062_a_at) / RFU FAM174B (11720279_a_at) / Fold change /veh FAM174B (11720279_a_at) / RFU TMPRSS4 (11748680_a_at) / Fold change /veh TMPRSS4 (11748680_a_at) / RFU FAM212B (11763350_a_at) / Fold change /veh FAM212B (11763350_a_at) / RFU PLEKHG5 (11743358_a_at) / Fold change /veh PLEKHG5 (11743358_a_at) / RFU ZSCAN30 (11745921_a_at) / Fold change /veh ZSCAN30 (11745921_a_at) / RFU CMKLR1 (11741424_a_at) / Fold change /veh CMKLR1 (11741424_a_at) / RFU LOC101060620 /// MAPK8IP1 (11723275_at) / Fold change /veh LOC101060620 /// MAPK8IP1 (11723275_at) / RFU SPTSSB (11747773_x_at) / Fold change /veh SPTSSB (11747773_x_at) / RFU PRSS12 (11739890_at) / Fold change /veh PRSS12 (11739890_at) / RFU BIN1 (11741810_x_at) / Fold change /veh BIN1 (11741810_x_at) / RFU WNT11 (11732464_a_at) / Fold change /veh WNT11 (11732464_a_at) / RFU C10orf10 (11716521_a_at) / Fold change /veh C10orf10 (11716521_a_at) / RFU C5orf56 (11738089_at) / Fold change /veh C5orf56 (11738089_at) / RFU CYB561 (11721691_x_at) / Fold change /veh CYB561 (11721691_x_at) / RFU ANKRD19P (11752326_a_at) / Fold change /veh ANKRD19P (11752326_a_at) / RFU OR2T12 /// OR2T33 /// OR2T8 (11738714_s_at) / Fold change /veh OR2T12 /// OR2T33 /// OR2T8 (11738714_s_at) / RFU VCAN (11748164_a_at) / Fold change /veh VCAN (11748164_a_at) / RFU JSRP1 (11732532_at) / Fold change /veh JSRP1 (11732532_at) / RFU KRTAP10-11 (11738290_x_at) / Fold change /veh KRTAP10-11 (11738290_x_at) / RFU MYO3A (11730013_a_at) / Fold change /veh MYO3A (11730013_a_at) / RFU EBF3 (11725865_a_at) / Fold change /veh EBF3 (11725865_a_at) / RFU CAMK2N1 (11719241_x_at) / Fold change /veh CAMK2N1 (11719241_x_at) / RFU C5orf56 (11738088_a_at) / Fold change /veh C5orf56 (11738088_a_at) / RFU OLFML3 (11715873_a_at) / Fold change /veh OLFML3 (11715873_a_at) / RFU LOC100653217 /// NTM (11731650_a_at) / Fold change /veh LOC100653217 /// NTM (11731650_a_at) / RFU MAPK11 (11762145_a_at) / Fold change /veh MAPK11 (11762145_a_at) / RFU FIZ1 (11724087_x_at) / Fold change /veh FIZ1 (11724087_x_at) / RFU OASL (11726364_x_at) / Fold change /veh OASL (11726364_x_at) / RFU SOX15 (11748057_x_at) / Fold change /veh SOX15 (11748057_x_at) / RFU CD79A (11719716_a_at) / Fold change /veh CD79A (11719716_a_at) / RFU HIST1H1D (11736915_at) / Fold change /veh HIST1H1D (11736915_at) / RFU CASKIN2 (11723855_a_at) / Fold change /veh CASKIN2 (11723855_a_at) / RFU LOC730098 (11760151_x_at) / Fold change /veh LOC730098 (11760151_x_at) / RFU OR4N2 (11742367_at) / Fold change /veh OR4N2 (11742367_at) / RFU PRRT2 (11749266_a_at) / Fold change /veh PRRT2 (11749266_a_at) / RFU SNX32 (11753110_a_at) / Fold change /veh SNX32 (11753110_a_at) / RFU CDHR5 (11726645_a_at) / Fold change /veh CDHR5 (11726645_a_at) / RFU RCAN1 (11760418_a_at) / Fold change /veh RCAN1 (11760418_a_at) / RFU FAM167A (11723789_a_at) / Fold change /veh FAM167A (11723789_a_at) / RFU FAM26E (11764081_at) / Fold change /veh FAM26E (11764081_at) / RFU ISYNA1 (11749810_s_at) / Fold change /veh ISYNA1 (11749810_s_at) / RFU ACY1 (11761880_at) / Fold change /veh ACY1 (11761880_at) / RFU 11764098_at / Fold change /veh 11764098_at / RFU SAMD14 (11745864_x_at) / Fold change /veh SAMD14 (11745864_x_at) / RFU NPB (11741838_a_at) / Fold change /veh NPB (11741838_a_at) / RFU TMPRSS6 (11731388_a_at) / Fold change /veh TMPRSS6 (11731388_a_at) / RFU KRTAP10-2 (11738614_at) / Fold change /veh KRTAP10-2 (11738614_at) / RFU ARHGAP8 /// PRR5-ARHGAP8 (11727945_x_at) / Fold change /veh ARHGAP8 /// PRR5-ARHGAP8 (11727945_x_at) / RFU KRTAP5-7 /// NADSYN1 (11734609_at) / Fold change /veh KRTAP5-7 /// NADSYN1 (11734609_at) / RFU RASL12 (11751679_a_at) / Fold change /veh RASL12 (11751679_a_at) / RFU CDKN2B (11736163_a_at) / Fold change /veh CDKN2B (11736163_a_at) / RFU PRF1 (11729649_at) / Fold change /veh PRF1 (11729649_at) / RFU, ZNF638 /// ZNF638-IT1 / Fold change vs veh, ZNF638 /// ZNF638-IT1 / RFU, PANK3 / Fold change vs veh, PANK3 / RFU, SH3YL1 / Fold change vs veh, SH3YL1 / RFU, ZEB2 / Fold change vs veh, ZEB2 / RFU, NRIP1 / Fold change vs veh, NRIP1 / RFU, PTTG1IP / Fold change vs veh, PTTG1IP / RFU, CAPN2 / Fold change vs veh, CAPN2 / RFU, MED14 / Fold change vs veh, MED14 / RFU, SNORA58 / Fold change vs veh, SNORA58 / RFU, C1orf63 / Fold change vs veh, C1orf63 / RFU, LRRFIP1 / Fold change vs veh, LRRFIP1 / RFU, NDUFAF7 / Fold change vs veh, NDUFAF7 / RFU, SLC12A2 / Fold change vs veh, SLC12A2 / RFU, IBTK / Fold change vs veh, IBTK / RFU, ESF1 / Fold change vs veh, ESF1 / Fold change vs veh, TMEM50B / RFU, TAOK1 / Fold change vs veh, TAOK1 / RFU, ACBD3 / Fold change vs veh, ACBD3 / RFU, TMA16 / Fold change vs veh, TMA16 / RFU, RWDD3 / Fold change vs veh, RWDD3 / RFU, BCAT1 / Fold change vs veh, BCAT1 / RFU, EDEM3 / Fold change vs veh, EDEM3 / RFU, TMEM33 / Fold change vs veh, TMEM33 / RFU, WDR75 / Fold change vs veh, WDR75 / RFU, AHCTF1 / Fold change vs veh, AHCTF1 / RFU, TFRC / Fold change vs veh, TFRC / RFU, ZDHHC17 / Fold change vs veh, ZDHHC17 / RFU, NOM1 / Fold change vs veh, NOM1 / RFU, ARL8B / Fold change vs veh, ARL8B / RFU, ZBTB11 / Fold change vs veh, ZBTB11 / RFU, TAMM41 / Fold change vs veh, TAMM41 / RFU, KIAA1704 /// LOC100996395 / Fold change vs veh, KIAA1704 /// LOC100996395 / RFU, ING1 / Fold change vs veh, ING1 / RFU, TRMT61B / Fold change vs veh, TRMT61B / RFU, FUBP3 / Fold change vs veh, FUBP3 / RFU, TP53 / Fold change vs veh, TP53 / RFU, TNKS2 / Fold change vs veh, TNKS2 / RFU, ZFP14 / Fold change vs veh, ZFP14 / RFU, ACTR2 / Fold change vs veh, ACTR2 / RFU, PPP3R1 / Fold change vs veh, PPP3R1 / RFU, PIK3R1 / Fold change vs veh, PIK3R1 / RFU, HNRNPA1 / Fold change vs veh, HNRNPA1 / RFU, RNF170 / Fold change vs veh, RNF170 / RFU, ZNF28 / Fold change vs veh, ZNF28 / RFU, RNGTT / Fold change vs veh, RNGTT / RFU, OGT / Fold change vs veh, OGT / RFU, BRD1 / Fold change vs veh, BRD1 / RFU, MARS / Fold change vs veh, MARS / RFU, ZNF655 / Fold change vs veh, ZNF655 / RFU, FAHD1 / Fold change vs veh, FAHD1 / RFU, BDP1 / Fold change vs veh, BDP1 / RFU, LRRCC1 / Fold change vs veh, LRRCC1 / RFU, ARID1A / Fold change vs veh, ARID1A / RFU, ZNF146 / Fold change vs veh, ZNF146 / RFU, ZNF330 / Fold change vs veh, ZNF330 / RFU, GPN3 / Fold change vs veh, GPN3 / RFU, C9orf123 / Fold change vs veh, C9orf123 / RFU, N4BP2L2 / Fold change vs veh, N4BP2L2 / RFU, ARFIP1 / Fold change vs veh, ARFIP1 / RFU, FAM179B / Fold change vs veh, FAM179B / RFU, BCL10 / Fold change vs veh, BCL10 / RFU, UHRF1BP1L / Fold change vs veh, UHRF1BP1L / RFU, BET1 / Fold change vs veh, BET1 / RFU, CNOT2 / Fold change vs veh, CNOT2 / RFU, ZNF268 / Fold change vs veh, ZNF268 / Fold change vs veh, ZNF507 / RFU, DGCR2 / Fold change vs veh, DGCR2 / RFU, WDSUB1 / Fold change vs veh, WDSUB1 / Fold change vs veh, HSP90B1 /// MIR3652 / RFU, ADSS / Fold change vs veh, ADSS / RFU, GK / Fold change vs veh, GK / RFU, ZNF148 / Fold change vs veh, ZNF148 / RFU, TAF9 / Fold change vs veh, TAF9 / RFU, SLC1A5 / Fold change vs veh, SLC1A5 / RFU, SLMO2 / Fold change vs veh, SLMO2 / RFU, ABCC4 / Fold change vs veh, ABCC4 / RFU, LOC101060439 /// RAP1B / Fold change vs veh, LOC101060439 /// RAP1B / RFU, RFX7 / Fold change vs veh, RFX7 / RFU, GTPBP10 / Fold change vs veh, GTPBP10 / RFU, CNEP1R1 / Fold change vs veh, CNEP1R1 / RFU, BIVM-ERCC5 /// ERCC5 / Fold change vs veh, BIVM-ERCC5 /// ERCC5 / RFU, ILF3 / Fold change vs veh, ILF3 / RFU 11762660_at / Fold change /veh 11762660_at / RFU VCAN (11757783_s_at) / Fold change /veh VCAN (11757783_s_at) / RFU DDX43 (11728927_at) / Fold change /veh DDX43 (11728927_at) / RFU KRT8 (11758188_x_at) / Fold change /veh KRT8 (11758188_x_at) / RFU NKD1 (11759106_at) / Fold change /veh NKD1 (11759106_at) / RFU SRD5A1 (11742802_a_at) / Fold change /veh SRD5A1 (11742802_a_at) / RFU TPSAB1 /// TPSB2 (11721975_s_at) / Fold change /veh TPSAB1 /// TPSB2 (11721975_s_at) / RFU GSTM3 (11746129_a_at) / Fold change /veh GSTM3 (11746129_a_at) / RFU IL23R (11737362_x_at) / Fold change /veh IL23R (11737362_x_at) / RFU TMEM51 (11727254_a_at) / Fold change /veh TMEM51 (11727254_a_at) / RFU PIWIL2 (11732686_x_at) / Fold change /veh PIWIL2 (11732686_x_at) / RFU ORM1 (11744905_x_at) / Fold change /veh ORM1 (11744905_x_at) / RFU CCDC152 (11743942_at) / Fold change /veh CCDC152 (11743942_at) / RFU ECM1 (11717891_a_at) / Fold change /veh ECM1 (11717891_a_at) / RFU IL23R (11748794_a_at) / Fold change /veh IL23R (11748794_a_at) / RFU TNFAIP8L3 (11732012_x_at) / Fold change /veh TNFAIP8L3 (11732012_x_at) / RFU MBOAT4 (11741988_at) / Fold change /veh MBOAT4 (11741988_at) / RFU 11764193_at / Fold change /veh 11764193_at / RFU TMEM53 (11763286_at) / Fold change /veh TMEM53 (11763286_at) / RFU MAGEB2 (11727129_at) / Fold change /veh MAGEB2 (11727129_at) / RFU TMEM200A (11744735_a_at) / Fold change /veh TMEM200A (11744735_a_at) / RFU CCDC152 (11751479_a_at) / Fold change /veh CCDC152 (11751479_a_at) / RFU FAM211A (11726209_a_at) / Fold change /veh FAM211A (11726209_a_at) / RFU RGS16 (11746705_a_at) / Fold change /veh RGS16 (11746705_a_at) / RFU VCAN (11755009_s_at) / Fold change /veh VCAN (11755009_s_at) / RFU RHOB (11743442_s_at) / Fold change /veh RHOB (11743442_s_at) / RFU RGS16 (11720943_a_at) / Fold change /veh RGS16 (11720943_a_at) / RFU RGS16 (11720944_at) / Fold change /veh RGS16 (11720944_at) / RFU, VPS4B / Fold change vs veh, VPS4B / RFU, CREB1 / Fold change vs veh, CREB1 / RFU, DNAJC13 / Fold change vs veh, DNAJC13 / RFU, GNAQ / Fold change vs veh, GNAQ / RFU, CDK5R1 / Fold change vs veh, CDK5R1 / RFU, ZRANB3 / Fold change vs veh, ZRANB3 / RFU, CUL4A / Fold change vs veh, CUL4A / RFU, CCNY / Fold change vs veh, CCNY / RFU, UFL1 / Fold change vs veh, UFL1 / RFU, COG3 / Fold change vs veh, COG3 / RFU, DIAPH2 / Fold change vs veh, DIAPH2 / RFU, SKA2 / Fold change vs veh, SKA2 / RFU, AFF3 / Fold change vs veh, AFF3 / RFU, LMF1 / Fold change vs veh, LMF1 / RFU, IPO11 / Fold change vs veh, IPO11 / RFU, DFFB / Fold change vs veh, DFFB / RFU, FOXP1 / Fold change vs veh, FOXP1 / RFU, CARD8 / Fold change vs veh, CARD8 / RFU, STRN3 / Fold change vs veh, STRN3 / RFU, ADK / Fold change vs veh, ADK / RFU, RASSF2 / Fold change vs veh, RASSF2 / RFU, WIPF1 / Fold change vs veh, WIPF1 / RFU, LARP1B / Fold change vs veh, LARP1B / RFU, RASA1 / Fold change vs veh, RASA1 / RFU, RB1 / Fold change vs veh, RB1 / RFU, PPFIA1 / Fold change vs veh, PPFIA1 / RFU, MAT2A / Fold change vs veh, MAT2A / RFU, CCT5 / Fold change vs veh, CCT5 / RFU, WDR92 / Fold change vs veh, WDR92 / RFU, CUX1 / Fold change vs veh, CUX1 / RFU, TTC7A / Fold change vs veh, TTC7A / RFU, TMEM135 / Fold change vs veh, TMEM135 / RFU, DEPTOR / Fold change vs veh, DEPTOR / RFU, CPM / Fold change vs veh, CPM / RFU, DNAJB6 / Fold change vs veh, DNAJB6 / RFU, CACNA2D3 / Fold change vs veh, CACNA2D3 / RFU, DTX4 / Fold change vs veh, DTX4 / RFU, TFCP2 / Fold change vs veh, TFCP2 / RFU, GMCL1 /// GMCL1P1 / Fold change vs veh, GMCL1 /// GMCL1P1 / RFU, AEBP2 / Fold change vs veh, AEBP2 / RFU, SNHG1 /// SNORD22 /// SNORD25 /// SNORD26 /// SNORD27 /// SNORD28 /// SNORD29 /// SNORD31 / Fold change vs veh, SNHG1 /// SNORD22 /// SNORD25 /// SNORD26 /// SNORD27 /// SNORD28 /// SNORD29 /// SNORD31 / Fold change (Aza/veh), C12orf56 (ProbeSet 11735607_a_at) / Fold change (ACY-1035/veh), C12orf56 (ProbeSet 11735607_a_at) / Fold change (Aza/veh), FGFR1OP (ProbeSet 11751329_s_at) / Fold change (ACY-1035/veh), FGFR1OP (ProbeSet 11751329_s_at) / Fold change (Aza/veh), VPS36 (ProbeSet 11739960_a_at) / Fold change (ACY-1035/veh), VPS36 (ProbeSet 11739960_a_at) / RFU SYPL1 (11715823_x_at) / Fold change /veh SYPL1 (11715823_x_at) / RFU IGFBP7 (11715501_s_at) / Fold change /veh IGFBP7 (11715501_s_at) / RFU REEP3 (11722064_at) / Fold change /veh REEP3 (11722064_at) / RFU IGLL1 (11728026_x_at) / Fold change /veh IGLL1 (11728026_x_at): dose or concentration left out as unconfirmed.

Turning to `Nc1ncn([C@@H]2O[C@H](CO)[C@@H](O)[C@H]2O)c(=O)n1` [azacitidine], the “RFU KIR2DL2 /// KIR2DL4 /// KIR2DL5A /// KIR2DL5B /// KIR2DS1 /// KIR2DS2 /// KIR2DS3 /// KIR2DS4 /// KIR3DL3 /// KIR3DL3 /// KIR3DS1 (11738374_at)” value worked out at 10.60 RFU.

Values taken from PMC5218480 (PLoS ONE, 2017).
